Experimental data published in patent US4409238A, “Insecticides and insecticidal compositions” (Kuraray Co., Ltd., priority 1977, dated 1983).

Experiments:
[1] = test system: houseflies (Musca domestica); experiment: Mortality test against houseflies by topical application method (Test Example 1); assay type: in vivo; conditions: female adult houseflies, 24 hours, 25° C.
Experimental: Each test compound was accurately weighed and a 1% solution and a 0.1% solution of the sample in acetone were prepared. A 1 μl portion of either of the above solutions was micropipetted onto the thoracic dorsal part of each female adult housefly (Musca domestica) under ether anaesthesia and the fly was released in a high-walled dish together with feed. The dish was covered with a metal-wire net and maintained at 25° C. After 24 hours, the test flies were inspected for deaths and the mortality (%) was calculated. Thirty test flies were used per concentration group.

[2] = Light stability test (Test Example 4); assay type: physicochemical; conditions: direct sunlight between glass plates, 12° C., relative to aluminum foil-covered control; for remaining at 4 h: read-out: Residue (%) Exposure time 4 hrs.; for remaining at 8 h: read-out: Residue (%) Exposure time 8 hrs.
Experimental: Into 2.0 ml of acetone were dissolved 80 mg of each test compound. A 5 μl portion of the solution was taken and spread on a glass plate (Micro Standard Cover Glass, 18 m/m No. 1, 200 pcs, Matsunami Glass Ind., Ltd.) and the acetone was evaporated. Then, a similar glass plate was superimposed on the above plate in such a manner that the test liquid was sandwitched. The specimen was exposed to direct sunlight at an atmospheric temperature of 12° C. for a predetermined exposure time. As an unexposed control, a similar specimen was covered with an aluminum foil. The test liquid was washed away with 1.0 ml of methanol containing 0.04% of dioctyl phthalate as an internal reference and high-speed liquid chromatography was carried out on the washings to determine the residual amount of the test compound. The residue (%) was calculated with the value for the aluminum foil-covered control specimen as the standard.

guppies = experiment: Fish toxicity test (Test Example 6); assay type: in vivo; conditions: female guppies, 48 hours, 25° C.; concentration at which 90% or more were killed
Experimental: To 5 l of water were added 250 mg of sorpol SM-200 (registered trademark, Toho Chemical Co., Ltd.) or Tween-20 (commercial product) as an emulsifier (surfactant) as well as 2.5 ml of an acetone solution containing one of the test compounds in a predetermined concentration. The mixture was stirred well to prepare a test water. Ten female guppies from 3 to 4 months of age were released into the test water and maintained at 25° C. The concentration of the test compound at which 90% or more of the guppies were killed during the ensuring 48 hours was determined. (This concentration is referred to as LC90).

[3] = test system: cockroaches (Blattella germanica); experiment: Mortality test against cockroaches by topical application method (Test Example 3); assay type: in vivo; conditions: 1 μl of 1% solution in acetone, female cockroaches, 24 hours, 25° C.
Experimental: Each test compound was accurately weighed and made in a 1% solution in acetone. Then, 1 μl of the above solution was micropipetted onto the abdominal part of each female cockroach (Blattella germanica) under ether anaesthesia. The roaches were released in a high-walled dish together with feed and, after the disk was covered with a metal wire net, same was maintained at 25° C. Fifteen roaches per group were employed. After 24 hours, the test roaches were inspected for deaths and the mortality (%) for each group was calculated.

[4] = Hydrolysis resistance test (Test Example 5); assay type: physicochemical; conditions: acetone/water, reflux for 2 days; read-out: Residue (%)
Experimental: Into about 8 ml of acetone were dissolved 100 mg of each test compound and, then, 1.0 g of water was added to this solution to prepare a mixed solution. This mixed solution was refluxed for 2 days. After concentration to about one half of the original volume and with the addition of dioctyl phthalate as an internal reference, the residual amount of the compound was determined by high-speed liquid chromatography. The residue (%) was then calculated.

green rice leafhoppers = experiment: Spray test on rice seedlings against green rice leafhoppers (Utility Example 1); assay type: in vivo, green rice leafhoppers (Nephotettix cincticeps); conditions: 30% emulsifiable concentrate (Formulation Example 5) diluted 300-fold, 10 ml/pot, 24 hours
Experimental: To 30 parts of each of Compounds [1], [2], [5] to [13] and [17] to [19] was added 50 parts of xylene and 20 parts of Sorpol SM-200 (a surfactant, trademark of Toho Chemical Co., Ltd.). The mixture was stirred well and dissolved to obtain a 30% emulsifiable concentrate.
The emulsifiable concentrate prepared from Compounds [1], [2], [6], [7], [9], [10], [12] and [13] in Formulation Example 5 were each diluted 300-fold with water. Then, each of the dilutions was sprayed over rice seedlings 25 days after sowing at the rate of 10 ml/pot. The pot was covered with a wire-net and 15 green rice leafhoppers were released under the net. After 24 hours, the leafhoppers were examined for deaths. The mortality (%) was not less than 90% for each of Compounds [1], [2], [6], [7], [9], [10], [12] and [13].

houseflies = experiment: Settling mist mortality test against houseflies, oil preparations of Formulation Example 2 (Utility Example 3); assay type: in vivo, houseflies (Musca domestica); conditions: oil preparation with 0.1 part compound and 0.1 part resmethrin per 100 parts, 24 hours
Experimental: To 0.1 part of each of Compounds [1] to [17] was added 0.1 part of resmethrin, followed by the addition of a sufficient amount of kerosene to make 100 parts. The mixture was stirred to obtain an oil preparation of each compound.
(§1) By the settling mist method, a mortality test against houseflies was carried out using the oil preparations made in Formulation Example 2 from Compounds [1], [2], [5] to [11] and [17]. After 24 hours, the flies were examined for deaths. The mortality (%) was not less than 90% for each of Compounds [1], [2], [5] to [11] and [17].

house-flies = experiment: Settling mist mortality test against houseflies, oil preparations of Formulation Example 3 (Utility Example 4); assay type: in vivo, houseflies (Musca domestica); conditions: oil preparation with 0.1 part compound and 0.08 part permethrin per 100 parts, 24 hours
Experimental: To 0.1 part of each of Compounds [1] to [28] was added 0.08 part of permethrin, followed by the addition of a sufficient amount of kerosene to make 100 parts. The mixture was stirred to obtain an oil preparation of each compound.
as §1, with “against house-flies” for “against houseflies”, “preparations obtained” for “preparations made”, “Example 3” for “Example 2”

[5] = test system: green rice leafhoppers (Nephotettix cincticeps); experiment: Mortality test against green rice leafhoppers by topical application method (Test Example 2); assay type: in vivo; conditions: 0.1% solution in acetone, female adults, 24 hours, 25° C.
Experimental: Each test compound was accurately weighed and an 0.1% solution in acetone was prepared. Female adults of green rice leafhopper (Nephotettix cincticeps) were anaesthetized with carbon dioxide gas and 0.5 µl of the above solution was micropipetted onto the thoracic abdominal part of each leafhopper. Then, the test leafhoppers were kept at 25° C. with access to rice plant seedlings. Each group comprised 15 green rice leafhoppers. After 24 hours, the leafhoppers were inspected for deaths and the mortality (%) was calculated for each compound.

Row | Structure (SMILES) | Mortality (%) 1 μg/fly [1] [%] | remaining at 4 h [2] [%] | remaining at 8 h [2] [%] | LC90 (guppies) | Mortality (%) 10 μg/fly [1] [%] | mortality at 1 %, 0.01 mg [3] [%] | remaining at 48 h [4] [%] | Mortality (%) (green rice leafhoppers) | Mortality (%) (houseflies) | Mortality (%) (house-flies) | mortality at 0.1 % [5] [%]
1 | C=CCC1=C(C)C(OC(=O)C2C(C=C(C)C)C2(C)C)CC1=O (stereo not drawn) [Allethrin, reference compound] | 50 | 35 | 17 | Not more than 0.5 ppm |  |  |  |  |  |  | 
2 | CC(C)C(CC=C(Cl)Cl)C(=O)OCc1cccc(Oc2ccccc2)c1 (stereo not drawn) [Compound [5], 3-Phenoxybenzyl α-(3,3-dichloroallyl)isovalerate] | 100 | 99 | 98 |  | 100 |  |  |  |  |  | 
3 | CC(C)C(CC=C(Cl)Cl)C(=O)OC(C#N)c1cccc(Oc2ccccc2)c1 (stereo not drawn) [Compound [6], α-Cyano-3-phenoxybenzyl α-(3,3-dichloroallyl)isovalerate] | 100 | 92 | 92 |  | 100 | 100 | > 90 | not less than 90% |  |  | 
4 | C#CC(OC(=O)C(CC=C(Cl)Cl)C(C)C)c1cccc(Oc2ccccc2)c1 (stereo not drawn) [Compound [7], α-Ethynyl-3-phenoxybenzyl α-(3,3-dichloroallyl)isovalerate] | 90 | 96 | 96 |  | 100 | 80 | > 90 | not less than 90% |  |  | 
5 | CC(C)C(CC=C(Br)Br)C(=O)OCc1cccc(Oc2ccccc2)c1 (stereo not drawn) [Compound [8], 3-Phenoxybenzyl α-(3,3-dibromoallyl)isovalerate] | 100 |  |  |  | 100 |  |  |  |  |  | 
6 | CC(C)C(CC=C(Br)Br)C(=O)OC(C#N)c1cccc(Oc2ccccc2)c1 (stereo not drawn) [Compound [9], α-Cyano-3-phenoxybenzyl α-(3,3-dibromoallyl)isovalerate] | 100 |  |  |  | 100 |  |  | not less than 90% |  |  | 
7 | C#CC(OC(=O)C(CC=C(Br)Br)C(C)C)c1cccc(Oc2ccccc2)c1 (stereo not drawn) [Compound [10], α-Ethynyl-3-phenoxybenzyl α-(3,3-dibromoallyl)isovalerate] | 100 | 97 | 97 | ≥ 10 ppm | 100 |  |  | not less than 90% |  |  | 
8 | CC(C)(CC=C(Cl)Cl)CC(=O)OCc1cccc(Oc2ccccc2)c1 [Compound [11], 3-Phenoxybenzyl β-(3,3-dichloroallyl)isovalerate] | 100 | 100 | 96 |  | 100 |  | > 90 |  |  |  | 
9 | CC(C)(CC=C(Cl)Cl)CC(=O)OC(C#N)c1cccc(Oc2ccccc2)c1 (stereo not drawn) [Compound [12], α-Cyano-3-phenoxybenzyl β-(3,3-dichloroallyl)isovalerate] | 100 | 92 | 90 |  | 100 |  | > 90 | not less than 90% |  |  | 
10 | C#CC(OC(=O)CC(C)(C)CC=C(Cl)Cl)c1cccc(Oc2ccccc2)c1 (stereo not drawn) [Compound [13], α-Ethynyl-3-phenoxybenzyl β-(3,3-dichloroallyl)isovalerate] | 90 | 100 | 100 |  | 100 |  |  | not less than 90% |  |  | 
11 | CC(C)(CC(=O)OCc1cccc(Oc2ccccc2)c1)C(Cl)C=C(Cl)Cl (stereo not drawn) [Compound [17], 3-Phenoxybenzyl β-(1,3,3-trichloroallyl)isovalerate] | 100 | 100 | 100 |  | 100 |  |  |  | not less than 90% | not less than 90% | 
12 | CC(C)(CC(=O)OC(C#N)c1cccc(Oc2ccccc2)c1)C(Cl)C=C(Cl)Cl (stereo not drawn) [Compound [18], α-Cyano-3-phenoxybenzyl β-(1,3,3-trichloroallyl)isovalerate] |  | 98 | 97 |  | 100 |  | > 90 |  |  |  | 
13 | C#CC(OC(=O)CC(C)(C)C(Cl)C=C(Cl)Cl)c1cccc(Oc2ccccc2)c1 (stereo not drawn) [Compound [19], α-Ethynyl-3-phenoxybenzyl β-(1,3,3-trichloroallyl)isovalerate] |  | 97 | 92 |  | 100 |  |  |  |  |  | 
14 | C=CCC(C(=O)OCc1cccc(Oc2ccccc2)c1)C(C)C (stereo not drawn) [reference compound] | 0 |  |  |  | 0 |  |  |  |  |  | 
15 | CC(C)=CCC(C(=O)OCc1cccc(Oc2ccccc2)c1)C(C)C (stereo not drawn) [reference compound] | 0 |  |  |  |  |  |  |  |  |  | 
16 | CC(C)C(C=C(Cl)Cl)C(=O)OCc1cccc(Oc2ccccc2)c1 (stereo not drawn) [reference compound] |  |  |  |  |  |  |  |  |  |  | 40
